Data: patent publication US9474758B2, “Thienopyrimidinedione derivatives as TRPA1 modulators” (Glenmark Pharmaceuticals S.A., priority 2009, dated 2016)

Tests used:
[1] = biological target: T1, Rat TRPA1 expressing CHO cells (Rattus norvegicus, UniProt Q6RI86); experiment: 45Calcium uptake assay, inhibition of AITC induced calcium uptake (rat); assay type: cell-based; settings: rat TRPA1 CHO cells, AITC 10 μM; for inhibition at 1 µM: compound 1.0 μM, read-out: Percentage inhibition at 1.0 μM; for inhibition at 10 µM: compound 10.0 μM, read-out: Percentage inhibition at 10.0 μM; for IC50: read-out: Rat IC50 value (Range)
T1 construct: expressed in transfected cells; host or cells: CHO cells (Zeocin selection)
Procedure: (§1) Screening for TRPA1 Antagonist Using the ^45Calcium Uptake Assay:
(§2) The inhibition of TRPA1 receptor activation was measured as inhibition of allyl isothiocyanate (AITC) induced cellular uptake of radioactive calcium.
(§3) Test compounds were dissolved in 100% DMSO to prepare 10 mM stock and then diluted using plain medium with 0.1% BSA and 1.8 mM CaCl2 to get the desired concentration. The final concentration of DMSO in the reaction was 0.5% (v/v). […] Rat TRPA1 expressing CHO cells were grown in F-12 DMEM medium with 10% FBS, 1% penicillin-streptomycin solution, and 400 μg/ml of Zeocin. […] Cells were treated with the test compounds for 10 minutes followed by the addition of AITC at a final concentration of 30 μM (for human TRPA1) and/or 10 μM (for rat TRPA1) and 5 μCi/ml ^45Ca^+2 for 3 minutes. Cells were washed and lysed using a buffer containing 1% Triton X-100, 0.1% deoxycholate and 0.1% SDS. Radioactivity in the lysate was measured in a Packard TopCount after addition of liquid scintillant.
(§4) Concentration response curves were plotted as a % of maximal response obtained in the absence of test antagonist. IC50 values can be calculated from concentration response curve by nonlinear regression analysis using GraphPad PRISM software.

[2] = biological target: T2, Human TRPA1 expressing CHO cells (Homo sapiens, UniProt O75762); experiment: 45Calcium uptake assay, inhibition of AITC induced calcium uptake (human); assay type: cell-based; settings: human TRPA1 CHO cells, AITC 30 μM; for inhibition at 1 µM: compound 1.0 μM, read-out: Percentage inhibition at 1.0 μM; for inhibition at 10 µM: compound 10.0 μM, read-out: Percentage inhibition at 10.0 μM; for IC50: read-out: Human IC50 value (Range)
T2 construct: expressed in transfected cells; host or cells: CHO cells (G-418 selection)
Procedure: as §1, §2, §3, §4

T1 sequence (Q6RI86 whole entry): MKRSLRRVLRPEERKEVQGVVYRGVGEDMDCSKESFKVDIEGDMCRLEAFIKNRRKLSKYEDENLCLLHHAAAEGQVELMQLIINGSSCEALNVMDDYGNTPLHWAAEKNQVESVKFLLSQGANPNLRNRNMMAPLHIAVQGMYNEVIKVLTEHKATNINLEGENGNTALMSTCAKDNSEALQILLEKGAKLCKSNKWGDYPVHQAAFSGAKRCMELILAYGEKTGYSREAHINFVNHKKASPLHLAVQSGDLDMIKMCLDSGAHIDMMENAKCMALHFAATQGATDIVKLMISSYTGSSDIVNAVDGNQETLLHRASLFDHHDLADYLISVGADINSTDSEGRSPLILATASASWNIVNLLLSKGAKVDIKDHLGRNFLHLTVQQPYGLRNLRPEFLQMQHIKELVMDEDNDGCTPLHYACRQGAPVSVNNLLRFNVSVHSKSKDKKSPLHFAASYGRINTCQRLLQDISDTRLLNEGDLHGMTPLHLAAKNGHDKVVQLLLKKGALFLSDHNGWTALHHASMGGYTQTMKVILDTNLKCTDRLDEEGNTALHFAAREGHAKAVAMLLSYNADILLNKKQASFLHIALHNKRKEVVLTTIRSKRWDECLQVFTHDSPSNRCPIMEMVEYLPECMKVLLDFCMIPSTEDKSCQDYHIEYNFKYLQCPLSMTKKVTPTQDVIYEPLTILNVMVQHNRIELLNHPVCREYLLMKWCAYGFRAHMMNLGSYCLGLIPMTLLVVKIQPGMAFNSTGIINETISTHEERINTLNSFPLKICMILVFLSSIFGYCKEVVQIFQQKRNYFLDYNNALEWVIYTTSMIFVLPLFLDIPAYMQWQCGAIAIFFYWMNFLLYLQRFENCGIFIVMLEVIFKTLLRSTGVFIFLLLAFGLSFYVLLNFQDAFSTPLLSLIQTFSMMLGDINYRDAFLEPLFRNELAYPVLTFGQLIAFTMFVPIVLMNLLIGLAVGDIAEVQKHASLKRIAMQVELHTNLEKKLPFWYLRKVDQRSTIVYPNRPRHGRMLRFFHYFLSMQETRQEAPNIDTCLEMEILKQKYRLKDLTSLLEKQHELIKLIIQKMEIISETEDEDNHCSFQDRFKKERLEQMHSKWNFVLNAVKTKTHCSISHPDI
T2 sequence (O75762 whole entry): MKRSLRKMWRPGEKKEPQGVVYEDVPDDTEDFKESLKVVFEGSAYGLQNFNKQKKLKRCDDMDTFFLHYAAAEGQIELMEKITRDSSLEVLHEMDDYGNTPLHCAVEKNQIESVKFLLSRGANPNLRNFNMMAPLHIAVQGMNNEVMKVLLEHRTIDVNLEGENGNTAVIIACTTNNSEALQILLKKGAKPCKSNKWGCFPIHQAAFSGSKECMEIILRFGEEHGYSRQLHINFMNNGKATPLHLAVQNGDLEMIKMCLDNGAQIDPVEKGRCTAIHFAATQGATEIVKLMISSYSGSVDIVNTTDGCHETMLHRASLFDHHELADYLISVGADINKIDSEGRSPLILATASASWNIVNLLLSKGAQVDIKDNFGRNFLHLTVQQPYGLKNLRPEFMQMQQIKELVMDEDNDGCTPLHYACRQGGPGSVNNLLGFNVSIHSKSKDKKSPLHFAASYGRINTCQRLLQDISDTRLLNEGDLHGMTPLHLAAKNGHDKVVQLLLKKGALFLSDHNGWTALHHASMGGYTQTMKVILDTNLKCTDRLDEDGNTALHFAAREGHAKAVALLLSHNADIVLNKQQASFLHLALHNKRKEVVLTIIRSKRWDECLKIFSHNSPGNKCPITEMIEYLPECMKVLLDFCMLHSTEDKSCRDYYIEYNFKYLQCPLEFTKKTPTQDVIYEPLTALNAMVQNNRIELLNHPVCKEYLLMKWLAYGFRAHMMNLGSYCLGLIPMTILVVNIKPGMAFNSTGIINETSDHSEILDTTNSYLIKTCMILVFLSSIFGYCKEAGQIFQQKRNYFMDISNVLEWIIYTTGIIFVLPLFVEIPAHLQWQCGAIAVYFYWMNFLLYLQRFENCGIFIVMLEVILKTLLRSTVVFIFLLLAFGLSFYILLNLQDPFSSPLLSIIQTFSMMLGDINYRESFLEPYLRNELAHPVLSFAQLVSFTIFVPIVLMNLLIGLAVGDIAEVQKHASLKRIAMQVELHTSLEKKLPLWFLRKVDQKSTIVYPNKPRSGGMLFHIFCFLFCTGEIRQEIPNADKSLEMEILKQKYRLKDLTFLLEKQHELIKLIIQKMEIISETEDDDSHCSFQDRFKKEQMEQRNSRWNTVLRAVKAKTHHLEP

inhibition at 1 µM [1] [%] | inhibition at 10 µM [1] [%] | IC50 [1] [nM] | inhibition at 1 µM [2] [%] | inhibition at 10 µM [2] [%] | IC50 [2] [nM] | Structure (SMILES)
96.1 | 100 | 50 to 500 | 98.2 | 99.5 | < 50 | Cn1c(=O)c2c(CC(=O)Nc3nc(-c4ccc(F)c(OC(F)(F)F)c4)cs3)csc2n(C)c1=O [Example 10, 2-(1,3-Dimethyl-2,4-dioxo-1,2,3,4-tetrahydrothieno[2,3-d]pyrimidin-5-yl)-N-{4-[4-fluoro-3-(trifluoromethoxy)phenyl]-1,3-thiazol-2-yl}acetamide]
92.5 | 100 | – | 95.5 | 98.9 | 50 to 500 | Cn1c(=O)c2c(CC(=O)Nc3nc(-c4cccc(OC(F)(F)F)c4)cs3)scc2n(C)c1=O [Example 48, 2-(1,3-Dimethyl-2,4-dioxo-1,2,3,4-tetrahydrothieno[3,4-d]pyrimidin-5-yl)-N-{4-[3-(trifluoromethoxy)phenyl]-1,3-thiazol-2-yl}acetamide]
99.7 | 99.9 | 50 to 500 | 100 | 100 | < 50 | Cn1c(=O)c2c(CC(=O)Nc3nc(-c4ccc(F)c(C(F)(F)F)c4)cs3)csc2n(C)c1=O [Example 6, 2-(1,3-Dimethyl-2,4-dioxo-1,2,3,4-tetrahydrothieno[2,3-d]pyrimidin-5-yl)-N-{4-[4-fluoro-3-(trifluoromethyl)phenyl]-1,3-thiazol-2-yl}acetamide]
97.8 | 100 | 50 to 500 | 99.7 | 99.8 | < 50 | Cn1c(=O)c2c(CC(=O)Nc3nc(-c4ccc(Cl)c(Cl)c4)cs3)csc2n(C)c1=O [Example 12, N-[4-(3,4-Dichlorophenyl)-1,3-thiazol-2-yl]-2-(1,3-dimethyl-2,4-dioxo-1,2,3,4-tetrahydrothieno[2,3-d]pyrimidin-5-yl)acetamide]
91.4 | 99.3 | – | 99 | 98.8 | 50 to 500 | Cn1c(=O)c2c(CC(=O)Nc3nc(-c4ccc(Cl)cc4)cs3)csc2n(C)c1=O [Example 2, N-[4-(4-Chlorophenyl)-1,3-thiazol-2-yl]-2-(1,3-dimethyl-2,4-dioxo-1,2,3,4-tetrahydrothieno[2,3-d]pyrimidin-5-yl)acetamide]
71.1 | 71.7 | – | 84.9 | 95.8 | < 50 | Cn1c(=O)c2c(CC(=O)Nc3nc(-c4cc(F)c(C(F)(F)F)c(F)c4)cs3)scc2n(C)c1=O [Example 58, N-{4-[3,5-difluoro-4-(trifluoromethyl)phenyl]-1,3-thiazol-2-yl}-2-(1,3-dimethyl-2,4-dioxo-1,2,3,4-tetrahydrothieno[3,4-d]pyrimidin-5-yl)acetamide]
93.5 | 99.7 | – | 95.4 | 100 | 50 to 500 | Cc1sc2c(c1CC(=O)Nc1nc(-c3cccc(F)c3F)cs1)c(=O)n(C)c(=O)n2C [Example 21, N-[4-(2,3-Difluorophenyl)-1,3-thiazol-2-yl]-2-(1,3,6-trimethyl-2,4-dioxo-1,2,3,4-tetrahydrothieno[2,3-d]pyrimidin-5-yl)acetamide]

Further lines, the molecule ahead of its results:

Structure (SMILES) | inhibition at 1 µM [1] [%] | inhibition at 10 µM [1] [%] | IC50 [1] [nM] | inhibition at 1 µM [2] [%] | inhibition at 10 µM [2] [%] | IC50 [2] [nM]
CCc1sc2c(c1CC(=O)Nc1nc(-c3ccc(C(F)(F)F)c(F)c3)cs1)c(=O)n(C)c(=O)n2C [Example 31, N-{4-[3-Fluoro-4-(trifluoromethyl)phenyl]-1,3-thiazol-2-yl}-2-(6-ethyl-1,3-dimethyl-2,4-dioxo-1,2,3,4-tetrahydrothieno[2,3-d]pyrimidin-5-yl)acetamide] | 96.8 | 97.3 | 50 to 500 | 98 | 98.5 | < 50
Cn1c(=O)c2c(CC(=O)Nc3nc(-c4cccc(C(F)(F)F)c4F)cs3)csc2n(C)c1=O [Example 9, 2-(1,3-Dimethyl-2,4-dioxo-1,2,3,4-tetrahydrothieno[2,3-d]pyrimidin-5-yl)-N-{4-[2-fluoro-3-(trifluoromethyl)phenyl]-1,3-thiazol-2-yl}acetamide] | 100 | 100 | 50 to 500 | 99.2 | 98.4 | < 50
Cn1c(=O)c2c(CC(=O)Nc3nc(-c4ccc(C(F)(F)F)c(F)c4F)cs3)scc2n(C)c1=O [Example 56, N-{4-[2,3-Difluoro-4-(trifluoromethyl)phenyl]-1,3-thiazol-2-yl}-2-(1,3-dimethyl-2,4-dioxo-1,2,3,4-tetrahydrothieno[3,4-d]pyrimidin-5-yl)acetamide] | 96.9 | 100 | 50 to 500 | 94.4 | 99.5 | < 50
Cc1sc2c(c1CC(=O)Nc1nc(-c3ccc(C(C)(C)C)cc3)cs1)c(=O)n(C)c(=O)n2C [Example 17, N-[4-(4-tert-Butylphenyl)-1,3-thiazol-2-yl]-2-(1,3,6-trimethyl-2,4-dioxo-1,2,3,4-tetrahydrothieno[2,3-d]pyrimidin-5-yl)acetamide] | 93.1 | 99.2 | 50 to 500 | 97.5 | 98.8 | 50 to 500
Cc1sc2c(c1CC(=O)Nc1nc(-c3ccc(Cl)c(Cl)c3)cs1)c(=O)n(C)c(=O)n2C [Example 20, N-[4-(3,4-Dichlorophenyl)-1,3-thiazol-2-yl]-2-(1,3,6-trimethyl-2,4-dioxo-1,2,3,4-tetrahydrothieno[2,3-d]pyrimidin-5-yl)acetamide] | 83.4 | 91.2 | 50 to 500 | 99 | 99.6 | < 50
CCc1sc2c(c1CC(=O)Nc1nc(-c3ccc(C#N)cc3)cs1)c(=O)n(C)c(=O)n2C [Example 30, N-[4-(4-Cyanophenyl)-1,3-thiazol-2-yl]-2-(6-ethyl-1,3-dimethyl-2,4-dioxo-1,2,3,4-tetrahydrothieno[2,3-d]pyrimidin-5-yl)acetamide] | 46.4 | 83.6 | – | 88.9 | 98.4 | 50 to 500
Cn1c(=O)c2c(CC(=O)Nc3nc(-c4ccc(C(F)(F)F)cc4)cs3)scc2n(C)c1=O [Example 47] | 88.9 | 99.6 | – | 97.9 | 98.8 | < 50
Cn1c(=O)c2c(CC(=O)Nc3nc(-c4cc(F)cc(C(F)(F)F)c4)cs3)csc2n(C)c1=O [Example 8, 2-(1,3-Dimethyl-2,4-dioxo-1,2,3,4-tetrahydrothieno[2,3-d]pyrimidin-5-yl)-N-{4-[3-fluoro-5-(trifluoromethyl)phenyl]-1,3-thiazol-2-yl}acetamide] | 95.5 | 100 | 50 to 500 | 89.8 | 99.9 | < 50
